Laboratory results: BindingDB's records for doi:10.1016/s0960-894x(99)00064-5 (Institut De Chimie Organique De L'Universit&#233, 1999)

Key:
[1] = biological target: Beta-galactosidase (Canavalia ensiformis); assay: Inhibition constant against beta-galactosidase enzyme of jack bean was reported
[2] = biological target: Beta-galactosidase (Canavalia ensiformis); assay: as above; remark: listed apart in the source

CC(=O)N[C@H]1C(O)O[C@H](C(O)CO)[C@@H]1C[C@H]1O[C@H](CO)[C@@H](O)[C@H](O)[C@@H]1O (some centres not stated) [N-[2,5-Dihydroxy-6-hydroxymethyl-4-(3,4,5-trihydroxy-6-hydroxymethyl-tetrahydro-pyran-2-ylmethyl)-tetrahydro-pyran-3-yl]-acetamide and N-[5-(1,2-Dihydroxy-ethyl)-2-hydroxy-4-(3,4,5-trihydroxy-6-hydroxymethyl-tetrahydro-pyran-2-ylmethyl)-tetrahydro-furan-3-yl]-acetamide]
IC50 [1]: 9.4 µM | Ki [2]: 7.5 µM
